Experimental data taken from patent US8314092B2, “Substituted [(5H-pyrrolo[2,1-c][1,4]benzodiazepin-11-yl)piperazin-1-yl]-2,2-dimethylpropanoic acid compounds as dual activity H1 inverse agonists/5-HT2A antagonists” (Eli Lilly and Company, priority 2011, dated 2012).
Where a name gives a salt, the structure may show the parent alone.

Legend:
[1] = biological target: human recombinant H1 receptor (Homo sapiens, UniProt P35367); assay: H1 competition binding assay ([3H]-Pyrilamine SPA); set-up: expressed in transfected cells
Procedure: [^3H]-Pyrilamine binding experiments are carried out in SPA (scintillation proximity assay) 96-well format. Membranes used in this assay are prepared from HEK-293 cells stably expressing recombinant H1 receptor (human). The incubation is initiated by the addition of a mixture of WGA PVT SPA beads (1 mg/well, Perkin Elmer (MA, USA) RPNQ0001) and 3 μg membranes to assay buffer (67 mM Tris; pH 7.6) containing 3.5 nM [^3H]-Pyrilamine and varying concentrations of the test compound (10 point concentration response curves). Non-specific binding is determined in the presence of 10 μM Triprolidine. Samples are incubated for four hours at room temperature (22° C.) and then read in a Microbeta Trilux.
(§1) Curves are evaluated using a 4-parameter logistic nonlinear equation to obtain the concentration of competitor causing 50% inhibition of radioligand binding (IC50). Equilibrium dissociation constants (Ki) are calculated according to the equation Ki=IC50/(1+L/Kd), where L equals the concentration of radioligand used in the experiment and Kd equals the equilibrium dissociation constant of the radioligand for the receptor, determined from standard saturation analysis or homologous competition experiments. Reported values for Ki, where n values are indicated, are shown as geometric mean±the standard error of the mean (SEM), with the number of replicate determinations indicated by n. […]

Adrenergic alpha2A = Adrenergic alpha2A (Homo sapiens, UniProt P08913); assay: Adrenergic alpha2A binding
From the text: (§2) Further, the compounds of the invention may be tested in binding assays and functional activity assays by well known methods for other physiologically important receptors such as, but not limited to, the hERG channel, other serotonin receptors (specifically 5-HT1A, 5-HT1B, 5-HT1D, 5-HT1E, 5-HT1F receptors, lack of agonist activity at 5-HT2B receptors, 5-HT2C, 5-HT4, 5-HTS, 5-HT6, and 5-HT7 receptors), muscarinic receptors, dopaminergic receptors (specifically D1, D2, and D3), GABAA receptors, adrenergic receptors and monoamine transporters. Certain exemplified compounds are tested at these receptors and are shown to lack significant activity.

5-HT7 = 5-HT7 (Homo sapiens, UniProt P34969); assay: 5-HT7 binding
From the text: as §2

5-HT1A = 5-HT1A (Homo sapiens, UniProt P08908); assay: 5-HT1A binding
From the text: as §2

[2] = biological target: T1, recombinant 5-HT2c receptor (human) (Homo sapiens, UniProt P28335); assay: 5-HT2c competition binding assay ([125I]-DOI SPA)
T1 construct: expressed in transfected cells
Procedure: [^125I]-(±)DOI binding experiments are carried out in SPA 96-well format. Membranes used in this assay are prepared from AV-12 cells stably expressing recombinant 5-HT2c receptor (human). The incubation is initiated by the addition of a mixture of WGA PVT SPA beads (0.5 mg/well, Perkin Elmer (MA, USA), RPNQ0001) and 2.5 μg membranes to assay buffer (50 mM Tris-HCl, 10 mM MgCl2, 0.5 mM EDTA, 10 μM pargyline, 0.1% ascorbic acid, pH7.4) containing 0.2 nM [[^125I]-(±)DOI and varying concentrations of the test compound (10 point concentration response curves). Non-specific binding is determined in the presence of 20 μM 1-(1-Naphthyl)piperazine. Samples are incubated for four hours at room temperature (22° C.) and then read in a Microbeta Trilux.
as §1, with “experiments.” for “experiments. Reported values for Ki, where n values are indicated, are shown as geometric mean±the standard error of the mean (SEM), with the number of replicate determinations indicated by n.”

Dopamine D3 = Dopamine D3 (Homo sapiens, UniProt P35462); assay: Dopamine D3 binding
From the text: as §2

hERG channel = hERG channel (Homo sapiens, UniProt Q12809); assay: hERG channel assay
From the text: as §2

Dopamine D2 = Dopamine D2 (Homo sapiens, UniProt P14416); assay: Dopamine D2 binding
From the text: as §2

Serotonin Transporter = Serotonin Transporter (Homo sapiens, UniProt P31645); assay: Serotonin transporter assay; type: binding
From the text: as §2

Adrenergic alpha2B = Adrenergic alpha2B (Homo sapiens, UniProt P18089); assay: Adrenergic alpha2B binding
From the text: as §2

5-HT6 = 5-HT6 (Homo sapiens, UniProt P50406); assay: 5-HT6 binding
From the text: as §2

5-HT1D = 5-HT1D (Homo sapiens, UniProt P28221); assay: 5-HT1D binding
From the text: as §2

Adrenergic alpha1A = Adrenergic alpha1A (Homo sapiens, UniProt P35348); assay: Adrenergic alpha1A binding
From the text: as §2

5-HT1B = 5-HT1B (Homo sapiens, UniProt P28222); assay: 5-HT1B binding
From the text: as §2

Norepinephrine Transport = Norepinephrine Transport (Homo sapiens, UniProt P23975); assay: Norepinephrine transporter assay; type: binding
From the text: as §2

Adrenergic alpha1B = Adrenergic alpha1B (Homo sapiens, UniProt P35368); assay: Adrenergic alpha1B binding
From the text: as §2

5-HT5 = 5-HT5 (Homo sapiens, UniProt P47898); assay: 5-HT5 binding
From the text: as §2

Dopamine Transporter = Dopamine Transporter (Homo sapiens, UniProt Q01959); assay: Dopamine transporter assay; type: binding
From the text: as §2

[3] = biological target: T2, recombinant 5-HT2A receptor (human) (Homo sapiens, UniProt P28223); assay: 5-HT2A competition binding assay ([3H]-Ketanserin SPA)
T2 construct: expressed in transfected cells
Procedure: [^3H]-Ketanserin binding experiments are carried out in SPA 96-well format. Membranes used in this assay are prepared from AV-12 cells stably expressing recombinant 5-HT2A receptor (human). The incubation is initiated by the addition of a mixture of WGA YSi SPA beads (1 mg/well, Perkin Elmer (MA, USA), RPNQ0011) and 2 μg membranes to assay buffer (67 mM Tris, 0.5 mM EDTA; pH 7.6) containing 3.1 nM [^3H]-Ketanserin and varying concentrations of the test compound (10 point concentration response curves). Non-specific binding is determined in the presence of 20 μM 1-(1-Naphthyl)piperazine. Samples were incubated for four hours at room temperature (22° C.) and then read in a Microbeta Trilux.
as §1

Dopamine D1 = Dopamine D1 (Homo sapiens, UniProt P21728); assay: Dopamine D1 binding
From the text: as §2

Adrenergic alpha2C = Adrenergic alpha2C (Homo sapiens, UniProt P18825); assay: Adrenergic alpha2C binding
From the text: as §2

Wistar rats = assay: Sleep and behavioral monitoring in rats (EEG, EMG, motion); type: in vivo; details: rat, 3 mg/kg
Procedure: Sleep and behavioral monitoring in rats: Representative compounds of the present invention are tested in rats for their ability to increase the amount of sleep or decrease sleep interruption or both without undesired effects such as inhibition of REM sleep, waking motor impairment, and/or rebound insomnia. Test animals are continuously monitored by electro-encephalograms (EEG), electromyograms (EMG), and motion to measure cumulative nonREM sleep, cumulative total sleep, average sleep bout duration, longest sleep bout duration, rebound insomnia, REM sleep inhibition and locomotor activity intensity during wakefulness. Methods for such studies are known in the art (see for example methods described in Edgar D M, Seidel W F. Modafinil induces wakefulness without intensifying motor activity or subsequent rebound hypersomnolence in the rat. J Pharmacology & Experimental Therapeutics 1997; 283: 757-769; van Gelder R N, Edgar D M, Dement W C. Real-time automated sleep scoring: validation of a microcomputer-based system for mice. Sleep 1991, 14: 48-55; and Gross B A, Walsh C M, Turakhia A A, Booth V, Mashour G A, Poe G R. Open-source logic-based automated sleep scoring software using electrophysiological recordings in rats. J Neurosci Methods. 2009; 184(1):10-8.) Studies are conducted as follows: Animal preparation. Adult, male Wistar rats (approximately 270-300 g at time of surgery) are surgically fitted for chronic recording of EEG, EMG, and motion as follows: Rats are surgically prepared with a cranial implant consisting of four stainless steel screws for EEG recording (two frontal [3.9 mm anterior from bregma, and ±2.0 mm mediolaterally] and two occipital [6.4 mm posterior from bregma, ±5.5 mm mediolaterally]), and with two Teflon-coated stainless steel wires for EMG recording (positioned under the nuchal trapezoid muscles). All leads are soldered to a miniature connector (Microtech, Boothwyn, Pa.) prior to surgery. The implant assembly is affixed to the skull by the combination of the stainless steel EEG recording screws, cyanoacrylate applied between the implant connector and skull, and dental acrylic. Locomotor activity is monitored via a miniature transmitter (Minimitter PDT4000G, Philips Respironics, Bend, Oreg.) surgically placed into the abdomen. At least 3 weeks are allowed for recovery. Recording environment. Each rat is housed individually within a microisolator cage modified with an inserted polycarbonate filter-top riser to allow more vertical headroom. A flexible cable that minimally restricts movement is connected at one end to a commutator affixed to the cage top and at the other end to the animal's cranial implant. Each cage is located within separate, ventilated compartments of a stainless steel sleep-wake recording chamber. Food and water are available ad libitum and the ambient temperature is maintained at about 23±1° C. A 24-hr. light-dark cycle (LD 12:12) using fluorescent light is maintained throughout the study. Relative humidity averages approximately 50%. Animals are undisturbed for at least 30 hrs before and after each treatment. Study design and dosing. The vehicle (placebo, methylcellulose 15 centipoise 0.25% in water) or one of the test compound dose levels is administered orally at 1 mL/kg pseudo-randomly such that no rat receives the same treatment twice, and no rat receives more than two of the 8 treatments in any one study. Each rat is removed from its cage for about a minute to be weighed and treated. At least 6 days “washout” period precede and follow each treatment. Data collection. […]

human recombinant H1 receptor, sequence (P35367 whole entry): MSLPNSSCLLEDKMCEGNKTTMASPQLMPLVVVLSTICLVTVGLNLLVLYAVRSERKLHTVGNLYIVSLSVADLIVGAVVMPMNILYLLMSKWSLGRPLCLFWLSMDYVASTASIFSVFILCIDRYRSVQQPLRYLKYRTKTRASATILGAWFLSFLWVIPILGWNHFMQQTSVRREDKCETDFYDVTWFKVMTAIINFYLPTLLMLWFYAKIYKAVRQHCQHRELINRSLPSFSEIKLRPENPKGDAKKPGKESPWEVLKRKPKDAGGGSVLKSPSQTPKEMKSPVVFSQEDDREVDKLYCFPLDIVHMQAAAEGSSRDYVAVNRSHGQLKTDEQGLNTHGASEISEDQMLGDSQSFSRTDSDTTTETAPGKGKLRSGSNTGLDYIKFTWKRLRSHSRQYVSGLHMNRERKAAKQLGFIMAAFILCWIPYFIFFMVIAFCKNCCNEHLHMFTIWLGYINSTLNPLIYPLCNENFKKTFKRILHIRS
Serotonin Transporter, sequence (P31645 whole entry): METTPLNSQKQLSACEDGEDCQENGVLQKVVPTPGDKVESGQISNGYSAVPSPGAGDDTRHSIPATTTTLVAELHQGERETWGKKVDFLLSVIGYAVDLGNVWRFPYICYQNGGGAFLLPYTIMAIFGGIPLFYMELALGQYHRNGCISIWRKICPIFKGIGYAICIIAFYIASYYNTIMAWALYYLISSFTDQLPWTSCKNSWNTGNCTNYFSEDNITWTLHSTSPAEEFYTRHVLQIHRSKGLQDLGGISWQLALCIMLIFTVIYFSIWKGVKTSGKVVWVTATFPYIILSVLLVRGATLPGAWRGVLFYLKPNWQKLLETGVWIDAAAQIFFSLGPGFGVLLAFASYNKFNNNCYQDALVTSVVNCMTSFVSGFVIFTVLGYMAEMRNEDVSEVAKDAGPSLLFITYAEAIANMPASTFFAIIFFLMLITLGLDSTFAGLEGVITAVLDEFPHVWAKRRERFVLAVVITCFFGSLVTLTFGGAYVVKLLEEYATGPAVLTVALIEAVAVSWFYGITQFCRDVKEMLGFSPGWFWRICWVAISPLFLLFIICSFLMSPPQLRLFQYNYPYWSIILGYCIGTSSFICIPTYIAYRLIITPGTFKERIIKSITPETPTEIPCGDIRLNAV
Adrenergic alpha2B, sequence (P18089 whole entry): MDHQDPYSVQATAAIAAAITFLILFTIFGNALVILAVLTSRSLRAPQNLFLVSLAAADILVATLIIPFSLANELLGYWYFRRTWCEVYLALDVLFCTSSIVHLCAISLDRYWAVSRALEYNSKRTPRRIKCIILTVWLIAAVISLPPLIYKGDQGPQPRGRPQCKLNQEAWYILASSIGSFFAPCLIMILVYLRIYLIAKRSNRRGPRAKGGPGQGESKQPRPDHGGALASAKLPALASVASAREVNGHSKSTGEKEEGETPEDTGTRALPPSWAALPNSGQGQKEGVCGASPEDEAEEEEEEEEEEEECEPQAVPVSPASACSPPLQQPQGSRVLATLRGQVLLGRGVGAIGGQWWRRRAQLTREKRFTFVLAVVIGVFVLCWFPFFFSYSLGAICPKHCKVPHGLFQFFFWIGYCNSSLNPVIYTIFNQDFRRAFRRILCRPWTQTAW
hERG channel, sequence (Q12809 whole entry): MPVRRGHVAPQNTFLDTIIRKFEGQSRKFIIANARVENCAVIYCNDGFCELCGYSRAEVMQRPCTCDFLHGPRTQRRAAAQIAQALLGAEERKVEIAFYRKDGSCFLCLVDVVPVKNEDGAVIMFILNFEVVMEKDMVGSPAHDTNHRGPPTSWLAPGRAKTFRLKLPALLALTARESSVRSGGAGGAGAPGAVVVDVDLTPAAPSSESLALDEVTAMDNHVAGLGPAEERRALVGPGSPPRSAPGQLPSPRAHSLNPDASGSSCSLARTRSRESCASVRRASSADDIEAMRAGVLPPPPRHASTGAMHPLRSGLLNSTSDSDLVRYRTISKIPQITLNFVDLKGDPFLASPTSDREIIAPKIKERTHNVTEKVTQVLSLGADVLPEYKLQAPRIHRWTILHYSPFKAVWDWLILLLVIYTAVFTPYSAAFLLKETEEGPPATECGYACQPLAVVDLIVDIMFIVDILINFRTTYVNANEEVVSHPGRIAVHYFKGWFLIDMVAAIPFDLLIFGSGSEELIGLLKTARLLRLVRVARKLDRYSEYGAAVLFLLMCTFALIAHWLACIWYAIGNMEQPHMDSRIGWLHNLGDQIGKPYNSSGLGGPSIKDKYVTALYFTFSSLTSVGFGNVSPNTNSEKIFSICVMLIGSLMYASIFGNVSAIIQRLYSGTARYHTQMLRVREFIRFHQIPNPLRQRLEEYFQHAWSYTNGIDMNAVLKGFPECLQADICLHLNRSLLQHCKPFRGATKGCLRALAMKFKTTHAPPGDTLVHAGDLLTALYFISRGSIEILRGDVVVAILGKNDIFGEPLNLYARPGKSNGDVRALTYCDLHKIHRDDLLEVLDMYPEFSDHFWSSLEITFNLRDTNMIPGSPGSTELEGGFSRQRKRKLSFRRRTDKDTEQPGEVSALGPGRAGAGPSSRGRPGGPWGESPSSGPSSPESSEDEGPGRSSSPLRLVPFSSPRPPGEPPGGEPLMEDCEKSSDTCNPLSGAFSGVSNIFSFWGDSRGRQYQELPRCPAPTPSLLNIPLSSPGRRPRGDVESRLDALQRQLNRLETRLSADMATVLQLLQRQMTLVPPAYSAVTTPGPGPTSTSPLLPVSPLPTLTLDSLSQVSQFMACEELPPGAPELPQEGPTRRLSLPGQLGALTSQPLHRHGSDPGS
Dopamine D1, sequence (P21728 whole entry): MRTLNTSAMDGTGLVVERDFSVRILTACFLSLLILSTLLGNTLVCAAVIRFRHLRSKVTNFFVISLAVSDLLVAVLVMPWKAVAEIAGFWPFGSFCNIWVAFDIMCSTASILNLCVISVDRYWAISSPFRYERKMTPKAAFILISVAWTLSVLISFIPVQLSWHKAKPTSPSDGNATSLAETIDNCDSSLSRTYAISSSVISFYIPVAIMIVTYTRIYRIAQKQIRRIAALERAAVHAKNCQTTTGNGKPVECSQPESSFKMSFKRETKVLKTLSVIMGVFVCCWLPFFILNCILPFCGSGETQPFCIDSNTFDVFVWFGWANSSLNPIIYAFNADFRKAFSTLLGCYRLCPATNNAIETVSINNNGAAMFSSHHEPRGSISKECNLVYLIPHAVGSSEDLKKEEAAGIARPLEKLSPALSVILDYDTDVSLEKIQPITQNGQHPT
Adrenergic alpha1A, sequence (P35348 whole entry): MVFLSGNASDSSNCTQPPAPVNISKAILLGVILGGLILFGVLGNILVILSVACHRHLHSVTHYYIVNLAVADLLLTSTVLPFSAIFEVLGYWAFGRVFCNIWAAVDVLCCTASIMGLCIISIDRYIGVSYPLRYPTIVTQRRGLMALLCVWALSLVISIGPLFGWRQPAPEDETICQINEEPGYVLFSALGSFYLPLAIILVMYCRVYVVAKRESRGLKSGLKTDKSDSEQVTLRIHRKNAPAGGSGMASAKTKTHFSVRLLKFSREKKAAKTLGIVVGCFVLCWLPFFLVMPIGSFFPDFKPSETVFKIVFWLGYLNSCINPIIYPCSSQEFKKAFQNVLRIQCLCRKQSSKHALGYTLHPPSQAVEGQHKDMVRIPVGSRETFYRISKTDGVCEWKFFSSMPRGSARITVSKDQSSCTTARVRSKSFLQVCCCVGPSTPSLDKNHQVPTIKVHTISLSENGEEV
Dopamine Transporter, sequence (Q01959 whole entry): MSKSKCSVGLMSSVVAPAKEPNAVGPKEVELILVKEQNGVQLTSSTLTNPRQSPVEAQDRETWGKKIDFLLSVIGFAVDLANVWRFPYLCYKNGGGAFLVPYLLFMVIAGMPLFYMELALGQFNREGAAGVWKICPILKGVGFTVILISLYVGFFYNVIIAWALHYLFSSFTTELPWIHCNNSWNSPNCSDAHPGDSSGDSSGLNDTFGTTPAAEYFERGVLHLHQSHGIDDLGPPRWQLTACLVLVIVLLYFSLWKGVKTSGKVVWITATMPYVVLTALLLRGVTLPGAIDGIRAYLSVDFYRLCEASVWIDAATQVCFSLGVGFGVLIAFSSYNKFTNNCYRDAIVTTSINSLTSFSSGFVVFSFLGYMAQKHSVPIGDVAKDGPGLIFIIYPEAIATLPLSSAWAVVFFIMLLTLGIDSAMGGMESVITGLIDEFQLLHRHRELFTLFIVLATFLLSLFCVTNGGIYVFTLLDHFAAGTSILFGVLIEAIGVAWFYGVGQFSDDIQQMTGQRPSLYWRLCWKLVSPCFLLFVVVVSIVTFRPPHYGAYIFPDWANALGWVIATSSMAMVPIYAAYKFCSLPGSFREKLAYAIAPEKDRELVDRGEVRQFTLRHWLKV
Dopamine D2, sequence (P14416 whole entry): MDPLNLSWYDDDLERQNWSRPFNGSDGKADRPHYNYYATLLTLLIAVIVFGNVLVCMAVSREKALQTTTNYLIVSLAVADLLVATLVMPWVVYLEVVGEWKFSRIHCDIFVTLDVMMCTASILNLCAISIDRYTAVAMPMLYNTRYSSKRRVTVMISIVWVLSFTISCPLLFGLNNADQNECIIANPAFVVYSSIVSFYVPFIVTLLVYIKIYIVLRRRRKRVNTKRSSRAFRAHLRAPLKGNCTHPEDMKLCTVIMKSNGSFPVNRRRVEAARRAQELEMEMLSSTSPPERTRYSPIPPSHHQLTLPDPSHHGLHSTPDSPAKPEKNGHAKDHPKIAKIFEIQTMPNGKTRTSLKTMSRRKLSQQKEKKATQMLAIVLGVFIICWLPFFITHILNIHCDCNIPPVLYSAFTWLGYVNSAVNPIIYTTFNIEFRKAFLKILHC

`Cc1cc2n(c1)Cc1cc(Cl)ccc1N=C2N1CCN(CC(C)(C)C(=O)O)CC1` [Example 1, 3-[4-(7-chloro-2-methyl-5H-pyrrolo[2,1-c][1,4]benzodiazepin-11-yl)piperazin-1-yl]-2,2-dimethylpropanoic acid] gave a Ki [1] of 0.0273 µM, a Ki (Adrenergic alpha2A) of over 9.03 µM and a Ki (5-HT7) of over 2.06 µM. It also gave a Ki (5-HT1A) of over 6.94 µM, a Ki [2] of 3.81 µM and a Ki (Dopamine D3) of over 5.68 µM. The “hERG Channel” value (hERG channel) was over 100 µM, the Ki (Dopamine D2) was over 4.5 µM and the “Serotonin Transporter” value (Serotonin Transporter) was over 641. The Ki (Adrenergic alpha2B) was over 4.98 µM, the Ki (5-HT6) was 2.69 µM and the Ki (5-HT1D) was over 3.98 µM. The Ki (Adrenergic alpha1A) was over 8.91 µM, the Ki (5-HT1B) was over 5.58 µM and the “Norepinephrine Transport” value (Norepinephrine Transport) was over 682. The Ki (Adrenergic alpha1B) was over 10.9 µM, the Ki (5-HT5) was over 8.83 µM and the “Dopamine Transporter” value (Dopamine Transporter) was over 879. The Ki [3] was 0.0575 µM, the Ki (Dopamine D1) was 3.79 µM and the Ki (Adrenergic alpha2C) was over 4.02 µM.

For `CC(C)(CN1CCN(C2=Nc3ccc(Cl)cc3Cn3cc(Br)cc32)CC1)C(=O)O` [Example 15, 3-[4-(2-Bromo-7-chloro-5H-pyrrolo[2,1-c][1,4]benzodiazepin-11-yl)piperazin-1-yl]-2,2-dimethylpropanoic acid dihydrochloride], the “REM sleep inhibition (in words)” value (Wistar rats) was “without significant”, the “cumulative NREM sleep time (in words)” value (Wistar rats) was “significantly increase” and the “cumulative total sleep time (in words)” value (Wistar rats) was “significantly increase”. The “inhibition of locomotor intensity (LMI) (in words)” value (“inhibition of locomotor intensity” for short) (Wistar rats) was “without significant” and the “rebound insomnia (in words)” value (Wistar rats) was “without significant”.

`CCc1cc2n(c1)Cc1cc(Cl)ccc1N=C2N1CCN(CC(C)(C)C(=O)O)CC1` [Example 16, 3-[4-(7-Chloro-2-ethyl-5H-pyrrolo[2,1-c][1,4]benzodiazepin-11-yl)piperazin-1-yl]-2,2-dimethylpropanoic acid dihydrochloride] was tested, and the “REM sleep inhibition (in words)” value (Wistar rats) was “without significant”, the “cumulative NREM sleep time (in words)” value (Wistar rats) was “significantly increase” and the “cumulative total sleep time (in words)” value (Wistar rats) was “significantly increase”. For the same molecule, the “inhibition of locomotor intensity” value (Wistar rats) was “without significant” and the “rebound insomnia (in words)” value (Wistar rats) was “without significant”.

With `CC(C)(CN1CCN(C2=Nc3ccc(Cl)cc3Cn3cc(C(F)(F)F)cc32)CC1)C(=O)O` [Example 18, 3-{4-[7-Chloro-2-(trifluoromethyl)-5H-pyrrolo[2,1-c][1,4]benzodiazepin-11-yl]piperazin-1-yl}-2,2-dimethylpropanoic acid dihydrochloride] the “REM sleep inhibition (in words)” value (Wistar rats) was “without significant”, the “cumulative NREM sleep time (in words)” value (Wistar rats) was “significantly increase” and the “cumulative total sleep time (in words)” value (Wistar rats) was “significantly increase”. For the same molecule, the “inhibition of locomotor intensity” value (Wistar rats) was “without significant” and the “rebound insomnia (in words)” value (Wistar rats) was “without significant”.

In the case of `CC(C)(CN1CCN(C2=Nc3ccc(Cl)cc3Cn3cc(Cl)cc32)CC1)C(=O)O` [Example 19, 3-[4-(2,7-Dichloro-5H-pyrrolo[2,1-c][1,4]benzodiazepin-11-yl)piperazin-1-yl]-2,2-dimethylpropanoic acid dihydrochloride], the “REM sleep inhibition (in words)” value (Wistar rats) is reported as “without significant”, the “cumulative NREM sleep time (in words)” value (Wistar rats) is reported as “significantly increase” and the “cumulative total sleep time (in words)” value (Wistar rats) is reported as “significantly increase”. For the same molecule, the “inhibition of locomotor intensity” value (Wistar rats) was “without significant” and the “rebound insomnia (in words)” value (Wistar rats) was “without significant”.
